# System: DNA
# Test: Binding affinity to human truncated telomeric DNA1 assessed as melting temperature at 20 uM by UV melting curve analysis (reference value: 58.9 +/- 0.3 degC)
# Assay type: nucleic-acid assay
row,SMILES,Tm
1,CC(=O)NCCN(CC(=O)NC(CCCCN)CN(CC(=O)NC(CCCCN)CN(CC(=O)NC(CCCCN)CN(CC(=O)NCCN(CC(=O)NC(CCCCN(C)C)C(N)=O)C(=O)Cn1cc(C)c(=O)[nH]c1=O)C(=O)Cn1cnc2c(=O)[nH]c(N)nc21)C(=O)Cn1cnc2c(=O)[nH]c(N)nc21)C(=O)Cn1cnc2c(=O)[nH]c(N)nc21)C(=O)Cn1cc(C)c(=O)[nH]c1=O (centres undefined),59.1 °C
2,CC(=O)NCCN(CC(=O)NCCN(CC(=O)NCCN(CC(=O)NCCN(CC(=O)NCCN(CC(=O)NC(CCCCN(C)C)C(N)=O)C(=O)Cn1cc(C)c(=O)[nH]c1=O)C(=O)Cn1cnc2c(=O)[nH]c(N)nc21)C(=O)Cn1cnc2c(=O)[nH]c(N)nc21)C(=O)Cn1cnc2c(=O)[nH]c(N)nc21)C(=O)Cn1cc(C)c(=O)[nH]c1=O (centres undefined),57.3 °C
3,CC(=O)NCCN(CC(=O)NC(CCCCN)CN(CC(=O)NCCN(CC(=O)NC(CCCCN)CN(CC(=O)NCCN(CC(=O)NC(CCCCN(C)C)C(N)=O)C(=O)Cn1cc(C)c(=O)[nH]c1=O)C(=O)Cn1cnc2c(=O)[nH]c(N)nc21)C(=O)Cn1cnc2c(=O)[nH]c(N)nc21)C(=O)Cn1cnc2c(=O)[nH]c(N)nc21)C(=O)Cn1cc(C)c(=O)[nH]c1=O (centres undefined),58.4 °C
4,CC(=O)NCCN(CC(=O)NCCN(CC(=O)NC(CCCCN)CN(CC(=O)NCCN(CC(=O)NCCN(CC(=O)NC(CCCCN(C)C)C(N)=O)C(=O)Cn1cc(C)c(=O)[nH]c1=O)C(=O)Cn1cnc2c(=O)[nH]c(N)nc21)C(=O)Cn1cnc2c(=O)[nH]c(N)nc21)C(=O)Cn1cnc2c(=O)[nH]c(N)nc21)C(=O)Cn1cc(C)c(=O)[nH]c1=O (centres undefined),60.2 °C
